Data from ChEMBL document CHEMBL5137017, “Identification of NVP-CLR457 as an Orally Bioavailable Non-CNS-Penetrant pan-Class IA Phosphoinositol-3-Kinase Inhibitor” (J Med Chem, 2022).
Activity calls are given as the source filed them. The calls are words filed in the database; no cut-off is given here.

Legend:
[1] = Brain to blood ratio in OF1 mouse at 1 mg/kg, iv measured at 5 mins post dose by LC-MS/MS analysis; format: ADME, organism-based; details: brain and blood, read-out: BBR
[2] = Stability in rat liver microsomes assessed as hepatic extraction preincubated for 3 mins followed by NADPH addition and measured after 60 mins; format: ADME, Microsome; details: read-out: ERH
[3] = Half life in Sprague-Dawley rat at 3 mg/kg, po or iv measured upto 24 hrs by LC-MS/MS analysis; format: ADME, organism-based; details: in vivo
[4] = AUC in Sprague-Dawley rat at 1 mg/kg, iv measured for 0.083 to 48 hrs by LC-MS/MS analysis; format: ADME, organism-based; design: time upper 48 hrs, dose 1 mg/kg, time lower 0.083 hrs, route iv; details: in vivo
[5] = Oral bioavailability in Sprague-Dawley rat at 3 mg/kg measured for 0.25 to 24 hrs by LC-MS/MS analysis; format: ADME, organism-based; details: in vivo, time 0.25-24 hrs
[6] = target: Phosphatidylinositol 4,5-bisphosphate 3-kinase catalytic subunit beta isoform (Homo sapiens, UniProt P42338); assay: Inhibition of PI3Kbeta (unknown origin) using L-alpha-phosphatidylinositol as substrate in presence of ATP by Kinase Glo luminescence assay
[7] = target: T1, Phosphatidylinositol 4,5-bisphosphate 3-kinase catalytic subunit delta isoform (Homo sapiens, UniProt O00329); assay: Inhibition of PI3Kdelta (unknown origin) using phosphatidylinositol as substrate measured for 15 to 60 mins by TR-FRET based Adapta universal kinase assay
T1 sequence (O00329 whole entry): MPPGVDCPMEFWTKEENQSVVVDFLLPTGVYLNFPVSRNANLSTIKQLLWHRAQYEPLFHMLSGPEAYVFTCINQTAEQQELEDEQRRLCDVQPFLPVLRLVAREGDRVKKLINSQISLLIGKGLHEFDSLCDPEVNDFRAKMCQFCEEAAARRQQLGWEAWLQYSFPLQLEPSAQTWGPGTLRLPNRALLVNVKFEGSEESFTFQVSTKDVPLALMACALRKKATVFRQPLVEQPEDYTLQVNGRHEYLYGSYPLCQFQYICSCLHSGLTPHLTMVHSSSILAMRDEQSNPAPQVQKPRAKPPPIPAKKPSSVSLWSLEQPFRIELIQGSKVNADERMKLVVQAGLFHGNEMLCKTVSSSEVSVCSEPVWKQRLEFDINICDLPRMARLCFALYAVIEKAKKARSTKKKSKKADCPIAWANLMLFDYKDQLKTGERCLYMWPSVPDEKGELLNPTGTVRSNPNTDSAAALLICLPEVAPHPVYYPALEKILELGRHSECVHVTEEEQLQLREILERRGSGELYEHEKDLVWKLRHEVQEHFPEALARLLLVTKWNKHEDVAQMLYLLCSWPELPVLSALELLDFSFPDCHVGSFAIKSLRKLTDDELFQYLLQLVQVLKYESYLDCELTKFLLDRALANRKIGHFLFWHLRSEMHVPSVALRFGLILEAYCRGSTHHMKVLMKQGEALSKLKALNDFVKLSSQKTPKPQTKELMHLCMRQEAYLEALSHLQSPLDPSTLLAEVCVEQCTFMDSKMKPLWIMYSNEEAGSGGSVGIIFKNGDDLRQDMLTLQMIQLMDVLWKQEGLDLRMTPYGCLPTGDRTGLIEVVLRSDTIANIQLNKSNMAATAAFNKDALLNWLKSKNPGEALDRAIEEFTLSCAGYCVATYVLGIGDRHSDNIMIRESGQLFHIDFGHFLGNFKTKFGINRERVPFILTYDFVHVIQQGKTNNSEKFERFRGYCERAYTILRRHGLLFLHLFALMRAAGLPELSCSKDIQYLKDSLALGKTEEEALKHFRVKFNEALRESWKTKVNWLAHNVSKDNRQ

Tubulin (Sus scrofa) = Tubulin (Sus scrofa) (UniProt P02554+P02550); assay: Inhibition of porcine tubulin polymerization assessed as inhibition of microtubule polymerization at 15 to 30 uM measured after 1 hr; format: protein assay; details: dose 15-30 µM
[8] = Inhibition of PI3K PTEN mutant in human HCC70 cells assessed as reduction in phosphorylation of AKT at Ser473 residue by Western blot analysis; format: cell-based
[9] = Volume of distribution at steady state in beagle dog at 0.3 mg/kg,po or 0.1 mg/kg,iv measured upto 24 hrs by LC-MS/MS analysis; format: ADME, organism-based, Canis lupus familiaris; details: in vivo
[10] = Half life in OF1 mouse at 10 mg/kg,po or 3 mg/kg,iv measured upto 24 hrs by LC-MS/MS analysis; format: ADME, organism-based; details: in vivo
[11] = Dose normalized AUC in OF1 mouse plasma at 3 mg/kg, iv measured upto 24 hrs by LC-MS/MS analysis; format: ADME, organism-based; details: in vivo
[12] = Dose normalized AUC in Sprague-Dawley rat at 30 mg/kg, po measured upto 24 hrs by LC-MS/MS analysis; format: ADME, organism-based; details: in vivo
[13] = Dose normalized AUC in beagle dog at 0.3 mg/kg, po measured upto 24 hrs by LC-MS/MS analysis; format: ADME, organism-based, Canis lupus familiaris; details: in vivo
[14] = Dose normalized Cmax in beagle dog at 0.3 mg/kg, po measured upto 24 hrs by LC-MS/MS analysis; format: ADME, organism-based, Canis lupus familiaris; details: in vivo
[15] = Tmax in Sprague-Dawley rat at 100 mg/kg, po measured upto 24 hrs by LC-MS/MS analysis; format: ADME, organism-based; details: in vivo
[16] = Cmax in Beagle dog at 5.4 mg/kg, po measured upto 24 hrs using PVP-ASD form of sample by LC-MS/MS analysis; format: ADME, organism-based, Canis lupus familiaris; design: dose 5.4 mg/kg, time < 24 hrs, route po; details: in vivo
Caco-2 = assay: Nonspecific permeability coefficient in human Caco-2 cells at 0.25 to 30 uM measured after 120 mins by LC-MS/MS analysis; format: ADME, cell-based; details: caco-2, 2 h, dose 0.25-30 µM
[17] = Apparent permeability in human Caco-2 cells assessed as Km by Michaelis-Menten based analysis; format: ADME, cell-based; details: read-out: Km(app)
[18] = Toxicity in athymic nude mouse xenografted with rat Rat1 cells expressing myr-p110alpha assessed as body weight change at 20 mg/kg,po qd measured after 14 to 22 days; format: organism-based; details: in vivo, time 14-22 day
[19] = Toxicity in athymic nude mouse xenografted with rat Rat1 cells expressing myr-p110alpha assessed as decrease in body weight at 40 mg/kg, po bid measured after 9 days; format: organism-based; details: in vivo, 216 h, time 9 day
[20] = Effect on blood glucose level in athymic nude mouse xenografted with rat Rat1 cells expressing myr-p110alpha at 20 mg/kg, po bid measured upto 14 hrs by glucometer analysis; format: toxicity, organism-based; details: in vivo
[21] = Effect on plasma insulin level in athymic nude mouse xenografted with rat Rat1 cells expressing myr-p110alpha at 10 mg/kg, po qd measured upto 14 hrs by glucometer analysis; format: toxicity, organism-based; details: in vivo
[22] = Clast in athymic nude mouse xenografted with rat Rat1 cells expressing myr-p110alpha at 3 mg/kg, po measured after 8 days by LC-MS/MS analysis; format: ADME, organism-based; details: in vivo, time 8 day, read-out: Clast
[23] = Tlast in athymic nude mouse xenografted with rat Rat1 cells expressing myr-p110alpha at 20 mg/kg, po measured after 8 days by LC-MS/MS analysis; format: ADME, organism-based; details: in vivo, 192 h, time 8 day
[24] = target: Serine/threonine-protein kinase mTOR (Mus musculus, UniProt Q9JLN9); assay: Inhibition of mTOR in Tscl-/- null mouse MEF assessed as reduction on RPS6 phosphorylation at Ser235/236 residue by alpha-screen assay; format: cell-based

Tubulin (Sus scrofa), sequence (P02550 whole entry, looked up): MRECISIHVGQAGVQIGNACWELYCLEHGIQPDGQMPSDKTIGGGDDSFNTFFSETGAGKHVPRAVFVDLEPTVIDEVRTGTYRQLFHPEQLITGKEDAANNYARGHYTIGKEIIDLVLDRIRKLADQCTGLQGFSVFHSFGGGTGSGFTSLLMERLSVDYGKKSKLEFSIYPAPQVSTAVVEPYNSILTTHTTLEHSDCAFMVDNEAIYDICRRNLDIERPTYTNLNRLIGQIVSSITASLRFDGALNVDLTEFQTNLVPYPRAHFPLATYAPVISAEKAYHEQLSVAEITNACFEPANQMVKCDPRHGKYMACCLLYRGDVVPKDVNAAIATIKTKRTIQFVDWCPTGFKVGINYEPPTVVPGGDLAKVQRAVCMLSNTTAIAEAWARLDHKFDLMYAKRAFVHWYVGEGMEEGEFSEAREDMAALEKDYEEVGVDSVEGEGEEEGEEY
Tubulin (Sus scrofa), sequence (P02554 whole entry, looked up): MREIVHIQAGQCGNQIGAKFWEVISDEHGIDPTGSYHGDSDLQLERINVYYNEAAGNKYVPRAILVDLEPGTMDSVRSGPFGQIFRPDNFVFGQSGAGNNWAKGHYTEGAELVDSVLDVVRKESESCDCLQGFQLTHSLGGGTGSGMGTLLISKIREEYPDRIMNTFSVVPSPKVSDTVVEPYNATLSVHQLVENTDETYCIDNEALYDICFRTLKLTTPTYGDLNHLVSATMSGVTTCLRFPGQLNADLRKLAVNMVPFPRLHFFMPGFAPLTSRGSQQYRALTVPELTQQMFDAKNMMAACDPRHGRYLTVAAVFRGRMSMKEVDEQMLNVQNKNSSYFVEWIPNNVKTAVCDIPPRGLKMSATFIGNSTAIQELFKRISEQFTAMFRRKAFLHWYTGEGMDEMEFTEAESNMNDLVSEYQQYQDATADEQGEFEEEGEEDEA
Phosphatidylinositol 4,5-bisphosphate 3-kinase catalytic subunit beta isoform, sequence (P42338 whole entry, canonical isoform): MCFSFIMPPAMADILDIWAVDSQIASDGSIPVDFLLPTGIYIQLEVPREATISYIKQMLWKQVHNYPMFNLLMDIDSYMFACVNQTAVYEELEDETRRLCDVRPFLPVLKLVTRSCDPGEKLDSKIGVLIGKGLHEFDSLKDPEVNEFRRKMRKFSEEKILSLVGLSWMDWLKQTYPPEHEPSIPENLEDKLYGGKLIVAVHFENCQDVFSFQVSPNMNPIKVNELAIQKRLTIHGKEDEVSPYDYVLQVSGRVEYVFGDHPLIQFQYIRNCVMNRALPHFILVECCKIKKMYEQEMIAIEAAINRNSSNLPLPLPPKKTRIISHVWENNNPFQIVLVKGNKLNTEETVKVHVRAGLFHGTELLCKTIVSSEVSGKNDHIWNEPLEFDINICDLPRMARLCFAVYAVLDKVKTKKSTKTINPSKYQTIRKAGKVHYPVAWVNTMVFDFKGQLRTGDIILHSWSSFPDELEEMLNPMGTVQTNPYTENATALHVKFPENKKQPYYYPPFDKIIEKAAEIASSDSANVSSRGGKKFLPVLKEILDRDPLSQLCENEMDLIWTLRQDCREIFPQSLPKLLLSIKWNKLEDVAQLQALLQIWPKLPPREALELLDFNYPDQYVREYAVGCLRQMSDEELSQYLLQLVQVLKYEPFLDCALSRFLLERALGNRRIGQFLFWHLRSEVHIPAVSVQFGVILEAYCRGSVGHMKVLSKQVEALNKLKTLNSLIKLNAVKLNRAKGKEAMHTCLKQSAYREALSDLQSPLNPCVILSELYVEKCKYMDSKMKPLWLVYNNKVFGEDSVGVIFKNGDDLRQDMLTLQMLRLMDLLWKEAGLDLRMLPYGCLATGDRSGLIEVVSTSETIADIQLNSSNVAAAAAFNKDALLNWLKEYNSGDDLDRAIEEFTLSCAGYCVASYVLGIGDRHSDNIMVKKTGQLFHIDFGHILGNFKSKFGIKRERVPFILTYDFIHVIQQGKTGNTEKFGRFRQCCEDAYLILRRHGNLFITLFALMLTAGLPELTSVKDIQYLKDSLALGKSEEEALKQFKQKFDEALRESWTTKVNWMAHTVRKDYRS

## C[C@H]1OC(=O)N(c2nc(-c3cnc(N)nc3C(F)(F)F)cc(N3CCOCC3)n2)[C@H]1CO
[1]
  Kp at 5 min: 0.02
[2]
  hepatic extraction ratio at 1 h: 0.35
[3]
  half-life: 3.3 h
[4]
  AUC: 1.77 µM·h
[5]
  bioavailability: 97%
[6]
  IC50: 8.3 nM
[7]
  IC50: 8.3 nM
Tubulin (Sus scrofa)
  inhibition: Active
[8]
  IC50: 56 nM
[9]
  Vdss: 1.5 L/kg
[10]
  half-life: 2 h
[11]
  AUC/dose: 3580 nM·h
[12]
  AUC/dose: 913 nM·h
[13]
  AUC/dose: 12970 nM·h
[14]
  Cmax/dose: 1121 nM
[15]
  Tmax: 24 h
[16]
  Cmax: 10700 nM
Caco-2
  Pm: 73 10^-5 cm/min
[17]
  Km: > 30 µM
[18]
  Activity: Non-Toxic
[19]
  Activity: Toxic
[20]
  Activity: Non-Toxic
[21]
  Activity: Toxic
[22]
  concentration at 192 h: 3 nM
[23]
  Tlast: 14 h
[24]
  IC50: 1630 nM
